In US5605929A, “Methods and compositions for inhibiting 5α-reductase activity” (priority 1995, dated 1997):
pIC50: −log10 of the molar value.

These compounds were tested against T1, 5α-Reductase of Rat Liver Microsomes (Rattus norvegicus, UniProt P24008) (assay: [3H]4-MA binding assay, rat liver microsomes (tea catechins)). Conditions: Table 8, 5 μM; read-out: % Inhibition of [^3 H]4-MA binding.
T1 sequence (P24008 1-259): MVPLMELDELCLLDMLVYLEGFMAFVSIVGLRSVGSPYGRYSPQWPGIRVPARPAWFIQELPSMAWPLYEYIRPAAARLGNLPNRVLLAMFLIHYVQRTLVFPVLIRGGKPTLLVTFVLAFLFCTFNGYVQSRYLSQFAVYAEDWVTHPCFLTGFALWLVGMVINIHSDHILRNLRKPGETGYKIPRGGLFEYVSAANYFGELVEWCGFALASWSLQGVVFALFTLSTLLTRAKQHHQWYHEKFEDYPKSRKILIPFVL
Procedure: Microsomes were prepared as described previously (Liang and Liao, 1992) from the liver of adult Sprague-Dawley female rats or Rat-1A cells expressing a specific type of human 5α-reductase. Each study was carried out in duplicate or triplicate which were usually within 10% of each other. Several studies were preformed to assure that the results shown are representative. The data presented was based on the rate of reaction.
[^3 H]4-MA binding assay were described in detail previously (Liang and Liao, 1992; Liang et al., 1983). […] The reaction was started by the addition of 25 μl of microsomes (25 μg protein). After 30-60 min incubation at 0° C., the [^3 H]4-MA bound to microsomes was collected on a Whatman GF/F glass fiber, washed and radioactivity determined (Liang and Liao, 1992).
In the case of `Oc1cc(O)c2c(c1)O[C@H](c1ccc(O)c(O)c1)[C@@H](O)C2` (relative stereo) [(±)Catechin], the inhibition at 5 µM was under 10%.
In the case of `Oc1cc(O)c2c(c1)O[C@H](c1ccc(O)c(O)c1)[C@@H](O)C2` [(+)Catechin], the inhibition at 5 µM was under 10%.

Same assay, conditions: Table 8, 10 μM; read-out: % Inhibition of [^3 H]4-MA binding
Work on `Oc1cc(O)c2c(c1)O[C@H](c1ccc(O)c(O)c1)[C@@H](O)C2` (relative stereo) [(±)Catechin] yielded an inhibition at 10 µM of under 10%.
Work on `Oc1cc(O)c2c(c1)O[C@H](c1ccc(O)c(O)c1)[C@@H](O)C2` [(+)Catechin] yielded an inhibition at 10 µM of under 10%.

Same assay, conditions: Table 8, 20 μM; read-out: % Inhibition of [^3 H]4-MA binding
`Oc1cc(O)c2c(c1)O[C@H](c1ccc(O)c(O)c1)[C@@H](O)C2` (relative stereo) [(±)Catechin] gave an inhibition at 20 µM of under 10%.
`Oc1cc(O)c2c(c1)O[C@H](c1ccc(O)c(O)c1)[C@@H](O)C2` [(+)Catechin] was tested, and the inhibition at 20 µM was under 10%.

Same assay, conditions: Table 8, 40 μM; read-out: % Inhibition of [^3 H]4-MA binding
Work on `Oc1cc(O)c2c(c1)O[C@H](c1ccc(O)c(O)c1)[C@@H](O)C2` (relative stereo) [(±)Catechin] yielded an inhibition at 40 µM of under 10%.
`Oc1cc(O)c2c(c1)O[C@H](c1ccc(O)c(O)c1)[C@@H](O)C2` [(+)Catechin] was tested, and the inhibition at 40 µM was under 10%.

Same assay, conditions: Table 8, 200 μM; read-out: % Inhibition of [^3 H]4-MA binding
`Oc1cc(O)c2c(c1)O[C@H](c1ccc(O)c(O)c1)[C@@H](O)C2` (relative stereo) [(±)Catechin] was tested, and the inhibition at 200 µM was under 10%.
`Oc1cc(O)c2c(c1)O[C@H](c1ccc(O)c(O)c1)[C@@H](O)C2` [(+)Catechin] gave an inhibition at 200 µM of under 10%.

Same assay, conditions: concentrations up to 200 μM
For `Cn1c(=O)c2c(ncn2C)n(C)c1=O` [Caffeine, reference compound], the “inhibitory activity” value was “not active”.
In the case of naphthaflavone [reference compound], the “inhibitory activity” value was “inactive”.
With `O=c1c(O)c(-c2ccc(O)c(O)c2)oc2cc(O)cc(O)c12` [quercetin, reference compound] the “inhibitory activity” value was “inactive”.

Same assay, conditions: read-out: % Inhibition of [^3 H]4-MA binding
`Oc1cc(O)c2c(c1)O[C@@H](c1cc(O)c(O)c(O)c1)[C@H](O)C2` [(-)Gallocatechin] gave an inhibition at 5 µM of under 10%, an inhibition at 10 µM of under 10% and an inhibition at 20 µM of under 10%. The inhibition at 40 µM was under 10% and the inhibition at 200 µM was under 10%.
`O=C(O[C@H]1Cc2c(O)cc(O)cc2O[C@@H]1c1ccc(O)c(O)c1)c1cc(O)c(O)c(O)c1` [CG, (-)Catechin-3-gallate] showed an inhibition at 5 µM of 12%, an inhibition at 10 µM of 31% and an inhibition at 20 µM of 53%. For the same compound, the inhibition at 40 µM was 73% and the inhibition at 200 µM was 91%.

Same assay, conditions: type 1 5α-reductase of rat liver microsomes; read-out: IC50
In the case of `O=C(O[C@H]1Cc2c(O)cc(O)cc2O[C@@H]1c1ccc(O)c(O)c1)c1cc(O)c(O)c(O)c1` [CG, (-)Catechin-3-gallate], the pIC50 was 4.74.

The compounds below were run against T1, 5α-Reductase of Rat Liver Microsomes (assay: not given). Conditions: not given.
carotenes was tested, and the “inhibitory activity in [^3 H]4-MA binding assay” value was “inactive”.
In the case of `CCCCC[C@H](O)/C=C/[C@H]1[C@H](O)CC(=O)[C@@H]1C/C=C\CCCC(=O)O` [Prostaglandin E2], the “inhibitory activity in [^3 H]4-MA binding assay” value was “not active”.
Work on di-γ-linolenin yielded a pIC50 of under 3.70.
heneicosene nitrile showed a pIC50 of under 3.70.
`CCCCC/C=C\C/C=C\C/C=C\CCCCC(=O)OCC(O)CO` (stereo not shown) [Monoγ-Linolenin] gave a pIC50 of 4.07.
For `CCCCCCCC/C=C\CCCCCCCC(=O)OCC(O)COC(=O)CCCCCCC/C=C\CCCCCCCC` [3-diolein], the “inhibitory activity in [^3 H]4-MA binding assay” value was “slightly stimulatory”.
For `CCCCC[C@H](O)/C=C/[C@@H]1[C@H]2C/C(=C/CCCC(=O)O)O[C@H]2C[C@H]1O` [Prostaglandin 12], the “inhibitory activity in [^3 H]4-MA binding assay” value was “not active”.
In the case of `CC1=C(/C=C/C(C)=C/C=C/C(C)=C\CO)C(C)(C)CCC1` [13-cis-retinol], the “inhibitory activity in [^3 H]4-MA binding assay” value was “slightly stimulatory”.
For methyl docosatetraenoate, the pIC50 was under 3.70.
`CC1=C(/C=C/C(C)=C/C=C/C(C)=C/C(=O)O)C(C)(C)CCC1` [retinoic acid] was tested, and the “inhibitory activity in [^3 H]4-MA binding assay” value was “inactive”.

Same assay, conditions: 40 μM
For `CC1=C(/C=C/C(C)=C/C=C/C(C)=C\CO)C(C)(C)CCC1` [13-cis-retinol], the “stimulation or inhibition of [^3 H]4-MA binding” value was “no stimulation or inhibition”.

Same assay, conditions: Table 2, 10 μM
For di-γ-linolenin, the “% Inhibition of [^3 H]4-MA binding” value was “NA (less than 10% inhibition were considered not active (NA))”.

Same assay, conditions: Table 2, 40 μM
For di-γ-linolenin, the “% Inhibition of [^3 H]4-MA binding” value was “NA (less than 10% inhibition were considered not active (NA))”.

Same assay, conditions: Table 2, 200 μM
di-γ-linolenin was tested, and the “% Inhibition of [^3 H]4-MA binding” value was “NA (less than 10% inhibition were considered not active (NA))”.

The compounds below were run against T1, 5α-Reductase of Rat Liver Microsomes (assay: biochemical). Conditions: 1 h, read-out: stimulation of [^3 H]4-MA binding.
`CC1=C(/C=C/C(C)=C/C=C/C(C)=C\CO)C(C)(C)CCC1` [13-cis-retinol] was tested, and the activation at 200 µM was 58%.

Same assay, conditions: read-out: % Inhibition of [^3 H]4-MA binding, Table 2, 5 μM
With `CCCCC/C=C\C/C=C\C/C=C\CCCCC(=O)OCC(O)CO` (stereo not shown) [Monoγ-Linolenin] the inhibition at 5 µM was under 10%.

Same assay, conditions: read-out: % Inhibition of [^3 H]4-MA binding, Table 2, 10 μM
For `CCCCC/C=C\C/C=C\C/C=C\CCCCC(=O)OCC(O)CO` (stereo not shown) [Monoγ-Linolenin], the inhibition at 10 µM was under 10%.

Same assay, conditions: read-out: % Inhibition of [^3 H]4-MA binding, Table 2, 40 μM
For `CCCCC/C=C\C/C=C\C/C=C\CCCCC(=O)OCC(O)CO` (stereo not shown) [Monoγ-Linolenin], the inhibition at 40 µM was 35%.

Same assay, conditions: read-out: % Inhibition of [^3 H]4-MA binding, Table 2, 200 μM
`CCCCC/C=C\C/C=C\C/C=C\CCCCC(=O)OCC(O)CO` (stereo not shown) [Monoγ-Linolenin] was tested, and the inhibition at 200 µM was 87%.
